Experimental data taken from patent publication EP0091090A2, “Bipyridine substituted imidazolidene copper complex and its use in food-producing animals, and bipyridine, 2,2'-(2-imidazolidinylidene) di-copper complex and use in animals” (INTERNATIONAL MINERALS & CHEMICAL CORPORATION, priority 1982, dated 1983).

Tested on: rumen fluid batch culture
Experiment: Rumen fluid batch culture test: volatile fatty acid, gas (CH4 + H2), protein and amino acid accumulation (Example 2)
Type: cell-based, steers
Design: HFo (formate) / HAc (acetate) / HPr (propionate) / HiBu (isobutyrate) / HBu (butyrate) / HiVal (isovalerate) / Total / Caloric Value of H2 / Caloric Value of HFo / Caloric Value of HAc / Caloric Value of HPr / Caloric Value of HiBu / Caloric Value of HBu / Caloric Value of HiVal / Caloric Value of CH3: unit not given here
Protocol: The above Formula IV composition was tested to determine its effectiveness as a feed additive for ruminants. The initial tests were in rumen fluid batch culture systems to determine the effect of the compound on volatile fatty acid/methane ratios (VFA/CH4). […] Test Procedure: A 50/50 mixture of ground corn and ground alfalfa was used as the substrate for the subject rumen fluid batch culture test. The compound (Formula IV ) was present in the rumen fluid in three separate test samples at 8.33, 25 and 75 ppm, respectively. On day 1, rumen fluid was obtained from mature fistulated steers on 50/50 concentrate/roughage diets. The rumen fluid (RF) was strained through three layers of gauze cloth and equilibrated with C02 gas. Wheaton serum vials (125 ml) were prepared ahead with 20 ml continuous batch buffer and 100 mg 50/50 ground corn/ground alfalfa. Controls and compounds (dissolved in acetone) were set up according to desired levels. The vials were kept under C02 gas until 20 ml of the strained RF was added. The vials were sealed and incubated at 39°C for 24 hours in a hot water bath. On successive days, gas samples (0.1 ml) were drawn for gas chromatography analysis before transferring 20 ml of the batch culture to another vial containing 20 ml of buffer, 100 mg substrate, and the corresponding compound. The remaining 20 ml was inoculated with 2 ml 6N HC1 and centrifuged at 15,000 rpm for 15 minutes. Ether extracts were prepared for volatile fatty acid (VFA) analysis. Some minor adjustments were made in the termperatures on the Hewlett-Packard 5750 Gas-Liquid Chromatograph used for VFA analysis when the glass column used was changed from 1/4 inch diameter to 1/8 inch diameter. Injection Port = 220°C Column Oven = 170°C Flame Detector = 250°C Only 4 minutes was needed to record the sample instead of the previous 7 minutes.

[1] = 8.33 μg/ml, total produced on Day 10

## 2,2'-(4,5-diphenyl-2H-imidazol-2-ylidene)bispyridine with CuCl2(1/1) [Formula IV Compound]
8.33 µg/ml, day 2
  AA: 0.16 µmol/mL
  CH4: 204 µ Moles
  H2: 0 µ Moles
  HAc (acetate): 43.83
  HBu (butyrate): 12.33
  HFo (formate): 1.48
  HPr (propionate): 11.81
  HiBu (isobutyrate): 1.27
  HiVal (isovalerate): 0
  Protein: 0 mg/mL
  Total: 70.71
8.33 µg/ml, day 3
  AA: 0.13 µmol/mL
  CH4: 157 µ Moles
  H2: 0 µ Moles
  HAc (acetate): 33.35
  HBu (butyrate): 9.87
  HFo (formate): 0.92
  HPr (propionate): 12.17
  HiBu (isobutyrate): 1.14
  HiVal (isovalerate): 1.14
  Protein: 0 mg/mL
  Total: 58.58
8.33 µg/ml, day 4
  CH4: 164 µ Moles
  H2: 0 µ Moles
  HAc (acetate): 34.54
  HBu (butyrate): 7.77
  HFo (formate): 0.40
  HPr (propionate): 13.16
  HiBu (isobutyrate): 0.68
  HiVal (isovalerate): 2.01
  Total: 58.54
8.33 µg/ml, day 5
  CH4: 181 µ Moles
  H2: 0 µ Moles
  HAc (acetate): 33.15
  HBu (butyrate): 7.14
  HFo (formate): 0.30
  HPr (propionate): 12.66
  HiBu (isobutyrate): 0.35
  HiVal (isovalerate): 1.17
  Total: 54.76
8.33 µg/ml, day 6
  AA: 0.11 µmol/mL
  CH4: 176 µ Moles
  H2: 0 µ Moles
  HAc (acetate): 29.32
  HBu (butyrate): 5.69
  HFo (formate): 1.02
  HPr (propionate): 11.08
  HiBu (isobutyrate): 0.46
  HiVal (isovalerate): 0
  Protein: 0 mg/mL
  Total: 47.57
8.33 µg/ml, day 7
  AA: 0.11 µmol/mL
  CH4: 139 µ Moles
  H2: 0 µ Moles
  HAc (acetate): 29.53
  HBu (butyrate): 4.39
  HFo (formate): 0.73
  HPr (propionate): 13.12
  HiBu (isobutyrate): 0.76
  HiVal (isovalerate): 0.77
  Protein: 0 mg/mL
  Total: 49.29
8.33 µg/ml, day 8
  AA: 0.09 µmol/mL
  CH4: 158 µ Moles
  H2: 0 µ Moles
  HAc (acetate): 26.19
  HBu (butyrate): 5.49
  HFo (formate): 0.55
  HPr (propionate): 13.48
  HiBu (isobutyrate): 0.65
  HiVal (isovalerate): 2.20
  Protein: 0 mg/mL
  Total: 48.55
8.33 µg/ml, day 9
  AA: 0.10 µmol/mL
  CH4: 157 µ Moles
  H2: 0 µ Moles
  HAc (acetate): 27.31
  HBu (butyrate): 3.06
  HFo (formate): 0.50
  HPr (propionate): 13.73
  HiBu (isobutyrate): 0.58
  HiVal (isovalerate): 0.55
  Protein: 0 mg/mL
  Total: 45.71
8.33 µg/ml, day 10
  AA: 0.24 µmol/mL
  CH4: 159 µ Moles
  H2: 0 µ Moles
  HAc (acetate): 24.52
  HBu (butyrate): 2.56
  HFo (formate): 0.23
  HPr (propionate): 12.89
  HiBu (isobutyrate): 0.21
  HiVal (isovalerate): 0.05
  Protein: 0 mg/mL
  Total: 40.45
8.33 µg/ml, produced on Day 10
  Caloric Value of CH3: 33.54
  Caloric Value of H2: 0
  Caloric Value of HAc: 90.96
  Caloric Value of HBu: 21.42
  Caloric Value of HFo: 0
  Caloric Value of HPr: 87.89
  Caloric Value of HiBu: 0
  Caloric Value of HiVal: 0
  Caloric Value, Total (VFA's): 200.27
  Total Cal in VFA & Gas: 233.79 cal
[1]
  CH4 produced on Day 10: 159
  H2 produced on Day 10: 0
  HAc (acetate) produced on Day 10: 434.4
  HBu (butyrate) produced on Day 10: 41.2
  HFo (formate) produced on Day 10: 0
  HPr (propionate) produced on Day 10: 240.8
  HiBu (isobutyrate) produced on Day 10: 0
  HiVal (isovalerate) produced on Day 10: 0
  Total VFA's produced on Day 10: 716.4
25 µg/ml, by day 10
  methane production: seemed to be recovering
25 µg/ml, day 2
  AA: 0.16 µ Moles/ml
  CH4: 197 µ Moles
  H2: 0 µ Moles
  HAc (acetate): 46.39
  HBu (butyrate): 10.94
  HFo (formate): 1.24
  HPr (propionate): 12.69
  HiBu (isobutyrate): 1.66
  HiVal (isovalerate): 2.55
  Protein: 0 mg/mL
  Total: 75.45
25 µg/ml, day 3
  AA: 0.17 µ Moles/ml
  CH4: 166 µ Moles
  H2: 0 µ Moles
  HAc (acetate): 35.36
  HBu (butyrate): 7.27
  HFo (formate): 1.05
  HPr (propionate): 12.93
  HiBu (isobutyrate): 1.21
  HiVal (isovalerate): 0.59
  Protein: 0 mg/mL
  Total: 58.40
25 µg/ml, day 4
  CH4: 164 µ Moles
  H2: 0 µ Moles
  HAc (acetate): 36.52
  HBu (butyrate): 6.38
  HFo (formate): 0.71
  HPr (propionate): 14.32
  HiBu (isobutyrate): 0.86
  HiVal (isovalerate): 1.33
  Total: 60.11
25 µg/ml, day 5
  CH4: 170 µ Moles
  H2: 0 µ Moles
  HAc (acetate): 34.06
  HBu (butyrate): 6.63
  HFo (formate): 0.44
  HPr (propionate): 14.87
  HiBu (isobutyrate): 0.56
  HiVal (isovalerate): 0.78
  Total: 57.33
25 µg/ml, day 6
  AA: 0.11 µ Moles/ml
  CH4: 143 µ Moles
  H2: 0 µ Moles
  HAc (acetate): 28.98
  HBu (butyrate): 4.26
  HFo (formate): 0.68
  HPr (propionate): 13.87
  HiBu (isobutyrate): 0.53
  HiVal (isovalerate): 0.20
  Protein: 0.01 mg/mL
  Total: 48.49
25 µg/ml, day 7
  AA: 0.24 µ Moles/ml
  CH4: 58 µ Moles
  H2: 8 µ Moles
  HAc (acetate): 22.54
  HBu (butyrate): 5.02
  HFo (formate): 0.61
  HPr (propionate): 13.54
  HiBu (isobutyrate): 0.75
  HiVal (isovalerate): 0.51
  Protein: 0 mg/mL
  Total: 42.95
25 µg/ml, day 8
  AA: 0.22 µ Moles/ml
